Experimental findings from patent US8530493B2, “Indolopyridines as Eg5 kinesin modulators” (4SC AG, priority 2006, dated 2013) are described below.

Assay [1] concerns RKO p27 or p21 uninduced (proliferating) colon adenocarcinoma cells. The assay is described as follows: Alamar Blue cell viability assay, RKO p27 or p21 uninduced (proliferating). The assay is classed as cell-based. The note with it: Homo sapiens, RKOp27, 72 h, Table B2, anti-proliferative/cytotoxic activity, read-out: −log EC50 RKO p27 or p21 uninduced (proliferating) (converted). The protocol: The anti-proliferative/cytotoxic activity of the compounds described herein can be tested on subclones of RKO human colon adenocarcinoma cells (Schmidt et al., Oncogene 19, 2423-2429; 2000) using the Alamar Blue cell viability assay (described in O'Brien et al. Eur J Biochem 267, 5421-5426, 2000). The compounds are dissolved as 10 mM solutions in DMSO and subsequently diluted in semi-logarithmic steps. DMSO dilutions are further diluted 1:100 into Dulbecco's modified Eagle's medium (DMEM) containing 10% fetal calf serum to a final concentration twice as much as the final concentration in the test. RKO subclones are seeded into 96 well flat bottom plates at a density of 4000 cells per well in a volume of 50 μl per well. 24 hours after seeding the 50 μl each of the compound dilutions in DMEM medium are added into each well of the 96 well plate. Each compound dilution is tested as triplicates. Wells containing untreated control cells are filled with 50 μl DMEM medium containing 1% DMSO. The cells are then incubated with the substances for 72 hours at 37° C. in a humidified atmosphere containing 5% carbon dioxide. To determine the viability of the cells, 10 μl of an Alamar Blue solution (Biosource) are added and the fluorescence is measured at an extinction of 544 nm and an emission of 590 nm. For the calculation of the cell viability the emission value from untreated cells is set as 100% viability and the emission rates of treated cells are set in relation to the values of untreated cells. Viabilities are expressed as % values. The Graphpad Prism program is used for the calculation of EC50 values for anti-proliferative/cytotoxic activity out of the obtained dose-response curves.
(§1) To determine the cell cycle specific mode of action, subclones of RKO colon adenocarcinoma cells (RKOp21 or RKOp27 as described by Schmidt et al. in Oncogene 19, 2423-2429; 2000) are seeded into 96 well flat bottom plates at a density of 16000 cells per well in a volume of 50 μl per well in DMEM growth medium with 10% FCS containing 10 μM Ponasterone A. 24 hours after seeding the 50 μl each of the compound dilutions in DMEM medium are added into each well of the 96-well plate. Each compound dilution is tested as triplicates. Wells containing untreated control cells are filled with 50 μl DMEM medium containing 1% DMSO. The cells are then incubated with the substances for 72 hours at 37° C. in a humidified atmosphere containing 5% carbon dioxide. To determine the viability of the cells, 10 μl of an Alamar Blue solution (Biosource) are added and the fluorescence is measured at an extinction of 544 nm and an emission of 590 nm. For the calculation of the cell viability the emission value from untreated cells is set as 100% viability and the emission rates of treated cells are set in relation to the values of untreated cells. Viabilities are expressed as % values. The Graphpad Prism program (GraphPad Software, Inc) is used for the calculation of EC50 values out of the obtained dose-response curves. Viability is compared of proliferating cells grown in the absence of the inducer Ponasterone A, versus viability of cells arrested by the expression of ectopic p27Kip1 induced by Ponasterone A.
(§2) Representative values for anti-proliferation/cytotoxicity [measured as −log EC50 (mol/l)] determined in the aforementioned assays follow from the following tables B1, B2 and B3, in which the numbers of the compounds correspond to the numbers of the examples.
Background: Alamar Blue is a resazurin reagent that responds to reducing activity.

Assay [2] has as its system RKO p27 or p21 induced (arrested) colon adenocarcinoma cells. The experiment in a line: Alamar Blue cell viability assay, RKO p27 or p21 induced (arrested). As to conditions: Homo sapiens, RKOp27, Table B2, cells arrested by Ponasterone A, 72 hours, read-out: −log EC50 RKO p27 or p21 induced (arrested) (converted). The assay is classed as cell-based. The protocol: as §1, §2

Each structure is given as a SMILES string.

As for `C=CCN(C)CCCN1C(=O)N2[C@H](c3cccc(O)c3)c3[nH]c4ccc(OC)cc4c3C[C@@]2(C)C1=O` (racemic) [Example 88, (3aSR,10RS)-2-[3-(Allyl-methyl-amino)-propyl]-10-(3-hydroxy-phenyl)-6-methoxy-3a-methyl-3a,4,9,10-tetrahydro-2,9,10a-triaza-cyclopenta[b]fluorene-1,3-dione], the EC50 was at most 39.8 nM in assay [1] and at least 3160 nM in assay [2].
Take `C#CCN(C)CCN1C(=O)N2[C@H](c3cccc(O)c3)c3[nH]c4ccc(OC)cc4c3C[C@@]2(C)C1=O` (racemic) [Example 81, (3aSR,10RS)-10-(3-Hydroxy-phenyl)-6-methoxy-3a-methyl-2-[2-(methyl-prop-2-ynyl-amino)-ethyl]-3a,4,9,10-tetrahydro-2,9,10a-triaza-cyclopenta[b]fluorene-1,3-dione]: the results for the EC50 in assay [1] and in assay [2] were at most 39.8 nM and at least 3160 nM, respectively.
For `CCN(CCO)CCN1C(=O)N2[C@H](c3cccc(O)c3)c3[nH]c4ccc(Cl)cc4c3C[C@@]2(C)C1=O` (racemic) [Example 124, (3aSR,10RS)-6-Chloro-2-{2-[ethyl-(2-hydroxy-ethyl)-amino]-ethyl}-10-(3-hydroxy-phenyl)-3a-methyl-3a,4,9,10-tetrahydro-2,9,10a-triaza-cyclopenta[b]fluorene-1,3-dione], in that order: at most 39.8 nM and at least 316 nM.
In the same order, the values of `C[C@@]12Cc3c([nH]c4ccc(Cl)cc34)[C@@H](c3cccc(O)c3)N1C(=O)N(CCCN1CCC1)C2=O` (racemic) [Example 141, (3aSR,10RS)-2-(3-Azetidin-1-yl-propyl)-6-chloro-10-(3-hydroxy-phenyl)-3a-methyl-3a,4,9,10-tetrahydro-2,9,10a-triaza-cyclopenta[b]fluorene-1,3-dione] are at most 39.8 nM and at least 3160 nM.
For `C#CCNCCN1C(=O)N2[C@H](c3cccc(O)c3)c3[nH]c4ccc(OC)cc4c3C[C@@]2(C)C1=O` (racemic) [Example 85, (3aSR,10RS)-10-(3-Hydroxy-phenyl)-6-methoxy-3a-methyl-2-(2-prop-2-ynylamino-ethyl)-3a,4,9,10-tetrahydro-2,9,10a-triaza-cyclopenta[b]fluorene-1,3-dione], in that order: 39.8 to 251 nM and at least 3160 nM.
`COc1ccc2[nH]c3c(c2c1)C[C@@]1(C)C(=O)N(CCCNCC2CC2)C(=O)N1[C@@H]3c1cccc(O)c1` (racemic) [Example 95, (3aSR,10RS)-2-[3-(Cyclopropylmethyl-amino)-propyl]-10-(3-hydroxy-phenyl)-6-methoxy-3a-methyl-3a,4,9,10-tetrahydro-2,9,10a-triaza-cyclopenta[b]fluorene-1,3-dione]: the results for the EC50 in assay [1] and in assay [2] were at most 39.8 nM and at least 3160 nM, respectively.
In the same order, the values of `COc1ccc2[nH]c3c(c2c1)C[C@@]1(C)C(=O)N(CCCN2CCCC2)C(=O)N1[C@@H]3c1cccc(O)c1` (racemic) [Example 96, (3aSR,10RS)-10-(3-Hydroxy-phenyl)-6-methoxy-3a-methyl-2-(3-pyrrolidin-1-yl-propyl)-3a,4,9,10-tetrahydro-2,9,10a-triaza-cyclopenta[b]fluorene-1,3-dione] are at most 39.8 nM and at least 3160 nM.
For `C=CCN(C)CCN1C(=O)N2[C@H](c3cccc(O)c3)c3[nH]c4ccc(OC)cc4c3C[C@@]2(C)C1=O` (racemic) [Example 80, (3aSR,10RS)-2-[2-(Allyl-methyl-amino)-ethyl]-10-(3-hydroxy-phenyl)-6-methoxy-3a-methyl-3a,4,9,10-tetrahydro-2,9,10a-triaza-cyclopenta[b]fluorene-1,3-dione], in that order: at most 39.8 nM and at least 3160 nM.
For `CNCCCN1C(=O)N2[C@H](c3cccc(O)c3)c3[nH]c4ccc(Cl)cc4c3C[C@@]2(C)C1=O` (racemic) [Example 130, (3aSR,10RS)-6-Chloro-10-(3-hydroxy-phenyl)-3a-methyl-2-(3-methylamino-propyl)-3a,4,9,10-tetrahydro-2,9,10a-triaza-cyclopenta[b]fluorene-1,3-dione], in that order: at most 39.8 nM and at least 316 nM.

One may read the EC50 as the concentration at which the effect is half-maximal.
